Activity calls are given as the source filed them. No cut-off for these calls is given here.
Experiments:
[1] = target: T1, 5-hydroxytryptamine receptor 2C (Homo sapiens, UniProt P28335); test: Binding affinity to 5HT2C
T1 sequence (P28335 whole entry): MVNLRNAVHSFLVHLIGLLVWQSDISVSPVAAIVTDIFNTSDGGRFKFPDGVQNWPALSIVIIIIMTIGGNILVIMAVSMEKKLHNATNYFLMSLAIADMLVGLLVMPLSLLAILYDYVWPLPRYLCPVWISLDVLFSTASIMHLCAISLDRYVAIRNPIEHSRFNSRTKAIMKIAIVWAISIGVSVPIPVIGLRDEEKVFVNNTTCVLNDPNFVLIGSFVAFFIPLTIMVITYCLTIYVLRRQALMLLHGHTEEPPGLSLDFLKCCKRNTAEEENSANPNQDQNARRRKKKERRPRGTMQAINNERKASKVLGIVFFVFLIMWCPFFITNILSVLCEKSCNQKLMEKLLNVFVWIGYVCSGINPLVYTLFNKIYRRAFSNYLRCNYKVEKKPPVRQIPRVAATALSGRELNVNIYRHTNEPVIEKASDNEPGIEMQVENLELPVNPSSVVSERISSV

[2] = target: Serotonin receptor (2b and 2c) (Homo sapiens) (UniProt P41595+P28335); test: Selectivity for 5HT2C over 5HT2B; type: protein assay
[3] = target: Serotonin 2 receptors; 5-HT2a & 5-HT2c (Homo sapiens) (UniProt P28223+P28335); test: Selectivity for 5HT2C over 5HT2A; type: protein assay
Sequence of Serotonin 2 receptors; 5-HT2a & 5-HT2c (Homo sapiens) (P28223 whole entry, looked up, one chain of several): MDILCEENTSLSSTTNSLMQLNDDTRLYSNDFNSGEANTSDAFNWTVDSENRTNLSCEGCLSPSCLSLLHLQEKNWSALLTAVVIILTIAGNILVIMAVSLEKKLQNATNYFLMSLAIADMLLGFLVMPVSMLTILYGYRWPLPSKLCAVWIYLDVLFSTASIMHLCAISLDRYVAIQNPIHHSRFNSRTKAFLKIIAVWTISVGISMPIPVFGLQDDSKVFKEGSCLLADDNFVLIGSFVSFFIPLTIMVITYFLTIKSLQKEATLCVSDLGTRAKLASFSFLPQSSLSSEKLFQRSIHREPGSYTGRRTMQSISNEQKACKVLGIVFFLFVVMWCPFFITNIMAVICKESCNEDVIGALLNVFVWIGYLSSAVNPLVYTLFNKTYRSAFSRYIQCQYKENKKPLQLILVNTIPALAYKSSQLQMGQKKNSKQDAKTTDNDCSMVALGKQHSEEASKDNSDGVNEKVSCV

[4] = target: T1, 5-hydroxytryptamine receptor 2C; test: […] of 5HT2C assessed as intracellular calcium concentration; type: functional, cell-based
[5] = Ratio of drug level in brain against plasma measured as AUC cortex/AUC plasma at 1.2 mg/kg, iv; type: ADME, organism-based; set-up: dose 1.2 mg/kg, route intravenous; settings: rat, read-out: BPR
[6] = Half life in rat at 1.2 mg/kg, iv; type: ADME, organism-based; set-up: dose 1.2 mg/kg, route intravenous; settings: in vivo
[7] = Oral bioavailability in rat at 10.6 mg/kg, po; type: ADME, organism-based; settings: in vivo
[8] = Clearance in rat at 1.2 mg/kg, iv; type: ADME, organism-based; set-up: dose 1.2 mg/kg, route intravenous; settings: in vivo
[9] = Clearance in dog at 1.0 mg/kg, iv; type: ADME, organism-based, Canis lupus familiaris; set-up: dose 1 mg/kg, route intravenous; settings: in vivo
[10] = Oral bioavailability in dog at 10.6 mg/kg, po; type: ADME, organism-based, Canis lupus familiaris; settings: in vivo
Rattus norvegicus [11] = test: Reduction of food intake in rat at 10 mg/kg, ip after 4 hrs; type: functional, organism-based; set-up: dose 10 mg/kg
[12] = Half life in dog at 1.0 mg/kg, iv; type: ADME, organism-based, Canis lupus familiaris; set-up: dose 1 mg/kg, route intravenous; settings: in vivo
Rattus norvegicus [13] = test: Reduction of food intake in rat at 20 mg/kg, ip after 24 hrs; type: functional, organism-based; set-up: dose 20 mg/kg
Rattus norvegicus [14] = test: Reduction of food intake in ip dosed rat; type: functional, organism-based

Compound	Ki [1] [nM]	Selectivity ratio [2]	Selectivity ratio [3]	other results
Cc1cc2c(cc1Cl)C(C)[C@@H]1CNC[C@H]21 (mixture of isomers)	107	–	–	–
CC1c2cc(Cl)c(Cl)cc2[C@H]2CNC[C@@H]12 (mixture of isomers)	103	–	–	–
Cc1cccc2c1[C@H]1CNC[C@H]1C2C (mixture of isomers)	1850	–	–	–
C[C@H]1c2cc(Cl)c(O)cc2[C@H]2CNC[C@H]21	27	63	27	–
Clc1ccc2c(c1)C[C@@H]1CNC[C@H]21	–	19	14	EC50 [4]: 11 nM
Cc1cc2c(cc1Cl)[C@H]1CNC[C@H]1C2C (mixture of isomers)	465	–	–	–
Cc1cc2c(cc1Cl)[C@H]1CNC[C@H]1[C@H]2C	134	14	11	–
Cc1cccc2c1C(C)[C@@H]1CNC[C@H]21 (mixture of isomers)	3380	–	–	–
CCOc1cc2c(cc1Cl)[C@H](C)[C@@H]1CNC[C@H]21	231	31	9	–
C[C@H]1c2cc(Cl)c(Cl)cc2[C@H]2CNC[C@H]21	155	32	8	–
COc1cc2c(cc1Br)[C@H](C)[C@@H]1CNC[C@H]21	27	81	12	–
CC1c2cc(F)ccc2[C@H]2CNC[C@@H]12 (mixture of isomers)	> 10000	–	–	–
COc1cc2c(cc1Cl)[C@H](C)[C@@H]1CNC[C@H]21	14	235	73	EC50 [4]: 6 nM; Kp [5]: 15; half-life [6]: 1.8 h; bioavailability [7]: 40%; clearance [8]: 31 mL/min/kg; clearance [9]: 39 mL/min/kg; bioavailability [10]: 80%; Activity (Rattus norvegicus [11]): Active; half-life [12]: 3.5 h; Activity (Rattus norvegicus [13]): Active; Activity (Rattus norvegicus [14]): Dose-dependent effect
COc1cc2c(cc1Cl)C(C)[C@@H]1CNC[C@H]21 (mixture of isomers)	530	–	–	–
Cc1cc2c(cc1Cl)[C@H](C)[C@@H]1CNC[C@H]21	155	32	8	–
CC1c2ccc(F)cc2[C@H]2CNC[C@@H]12 (mixture of isomers)	3010	–	–	–
Cc1ccc2c(c1)[C@H]1CNC[C@H]1C2C (mixture of isomers)	3310	–	–	–
C[C@H]1c2c(ccc(Cl)c2Cl)[C@H]2CNC[C@H]21	5	73	50	–
Cc1ccc2c(c1)C(C)[C@@H]1CNC[C@H]21 (mixture of isomers)	1700	–	–	–
Cc1cc2c(cc1Br)[C@H]1CNC[C@H]1C2C (mixture of isomers)	207	–	–	–
Cc1cc2c(cc1Br)C(C)[C@@H]1CNC[C@H]21 (mixture of isomers)	463	–	–	–
C[C@H]1c2cc(Cl)ccc2[C@H]2CNC[C@H]21	911	132	56	EC50 [4]: 54 nM
C[C@@H]1c2cc(Cl)c(Cl)cc2[C@H]2CNC[C@@H]12	1140	3	2	–

Source: ChEMBL document CHEMBL1146018, “The design and synthesis of a tricyclic single-nitrogen scaffold that serves as a 5-HT2C receptor agonist” (Bioorg Med Chem Lett, 2006)
